Data from patent US4552888A, “Ascorbic acid ethers in angiogene” (Eli Lilly and Company, priority 1983, dated 1985).
Read-outs that look alike come from different tables or passages of the source. One block for each molecule: values may come before it.

Key:
angiogenesis factor = assay: Inhibition of angiogenesis factor (3683 Morris hepatoma lysosomal-mitochondrial pellet) induced serpentine vessels in mice; assay type: in vivo, mice (SPF/ND4 female); settings: Mus musculus, ip; for inhibition in vivo at 25 mg/kg: i.p., 24 hours
Procedure: Lysosomal-mitochondrial pellets containing angiogenesis factor are prepared from 3683 Morris hepatoma. The pellet is diluted with 7-8 ml. of 15% ficoll. With this dilution, 8-10 serpentine vessels will be produced per 0.2 cc. injection as described below for the control group.
Next, 15 SPF/ND4 female mice weighing 20-22 g. are shaved on the left side and then divided into three groups of five each. One group (drug group) is injected subcutaneously and laterally with 0.20 cc. of the lysosomal-mitochondrial preparation diluted with 15% ficoll. This group of mice is then dosed individually by the intraperitoneal route with 0.5 cc. of a solution or suspension in a standard vehicle containing the compound under test, usually at an initial dose level of 300 mg./kg. If this dose level is toxic, two-fold dilutions are made until all mice survive a single dose. The second group of mice (control group) is injected subcutaneously and laterally with 0.2 cc. of the lysosomal-mitochondrial suspension diluted with 15% ficoll and dosed intraperitoneally with 0.5 cc. of the vehicle alone. The third group (negative control) is injected with ficoll solution only (no treatment with drug or vehicle). The mice are sacrificed after 24 hours. Each mouse is placed on its side on a dissecting board with the shaved side up. Starting at the flank, the skin is cut straight to the back of the animal. A similar cut is made behind the front leg. Then the skin is cut along the back making a flap of about one inch by two inches. The skin is carefully separated from the connective tissue using forceps and a scalpel. The skin flap is then laid back exposing the lysosomal-mitochondrial implant which is attached to the skin. The skin flap is gently flattened out and with the use of a binocular dissecting scope, serpentine vessels are observed around the lysosomal-mitochondrial implant and their number counted. All observations of the number of serpentine vessels are made at the same power of the microscope (1X). The average number of serpentine vessels for each group is calculated. The percent inhibition is then calculated according to the following equation. [formula] where sv=average number of serpentine vessels.
If the negative control group described above has any serpentine vessels, the test is invalid due to contamination of the ficoll solution.
Table I covers compounds according to formula I above in which R^2 and R^3 are both H, table II covers compounds in which R^2 and R^3 form a 1-methylethylidene group, and Table III compounds in which R^2 plus R^3 equal a benzylidene group or other group.
One of the compounds of this invention, 3-O-n-octadecyl-5,6-O-(1-methylethylidene)-L-ascorbic acid was tested at a series of dose levels for its ability to inhibit tumor angiogenesis and the results of these tests are set forth in Table IV.

[1] = system: paw swelling caused by Type II collagen; assay: Collagen arthritis assay (type II collagen-induced paw swelling); assay type: in vivo, inbred Lewis male rats; settings: for decrease in paw swelling caused by collagen Type II injection: 15 mg./kg. per os
Procedure: This test method is a collagen arthritis assay carried out as follows. Type II collagen is isolated from bovine articular cartilage by the method of […] and Nimni [Biochemistry, 10, 3905, (1971)]. The collagen is dissolved in 0.1M acetic acid and stored at -20°. Type II collagen solution is diluted to 2 mg./ml. concentration and emulsified thoroughly with an equal volume of incomplete Freund's adjuvant (ICFA). The emulsion containing approximately 0.5 mg. of collagen is injected intradermally to groups of 6 inbred Lewis male rats (Charles River Breeders; 170-200 g.) at various sites in the dorsal area. The hindpaw volumes of each rat is measured and recorded three times a week throughout the test period to assess the inflammatory reaction. The animals receive compounds under test as suspensions in carboxymethylcellulose vehicle, by oral gavage, 5 days per week (Mon.-Fri.). At the end of the test (day 28 or 30), the blood of these animals is drawn by cardiac puncture and the serum anti-type II collagen antibody levels are estimated by passive hemagglutination technique, using glutaraldehyde treated sheep red cells, to which type II collagen is conjugated [[…] et al., Immunochemistry, 6, 67,1969); Andriopoulos et al., Arth. Rheum., 19, 613, (1976)]. The cellular response or delayed-type hypersensitivity response to type II collagen is measured by the radiometric ear index assay (Kostiala, Immunology, 33, 561, 1977). In certain experiments, the bone damage occurring because of immunization with type II collagen and the effects of drugs are determined from the radiographs of the hindpaws of two or three representative animals from each group. Injections of ICFAs alone were employed to some rats as a negative control.

pKa by titration = assay type: physicochemical; settings: for pKa: read-out: pKa
Vitamin C activity = settings: orally in aqueous solution; Bezssonoff and Sacrez 1937; cited from earlier work
[2] = system: Madison (M109) lung carcinoma; assay: Madison lung metastasis assay; assay type: in vivo, male BALB/C mice
Procedure: In addition, the compounds of this invention have found utility as angiogenesis inhibitors in metastatis formation. Such activity has been found in an artificial metastasis model using Madison lung (M 109) carcinoma which metastasizes preferentially to lungs and is not overly sensitive to chemotherapeutic agents. The test is carried out as follows.
The Madison (M109) lung carcinoma is carried as a transplantable line in syngeneic BALB/C mice. This tumor line was obtained from the tumor bank at Mason Research Institute, Worcester, Mass. For tumor metastasis studies, a subcutaneously-grown tumor is aseptically excised, minced into small pieces with a scissors, and gently trypsinized at room temperature to obtain a single cell suspension. The cells are suspended in RPMI-1640 medium (M. A. Bioproducts, Walkersville, MD). Viable M109 cells are determined by trypan blue exclusion, and the cell concentration is determined with a hemocytometer. The cells are adjusted to 1×10^5 viable cells/ml. of medium. M109 cells are injected i.v. into normal, male BALB/C mice. Inoculum volume per mouse is 0.2 ml. (2×10^4 cells). Drugs are administered i.p. to randomized groups of 10 mice 2 days prior to tumor cell inoculation. Controls receive mock injections of 0.5 ml. buffer. Daily mortality is monitored, and median survival times are determined for each group. Cytoxan was employed as a positive control. In the Table, column 1 gives drug treatment and columns 2 and 3 measures number of lesions±standard error per lung on days 30 and 42.
The growth rate and number of lung metastases in the above experiment were less than usual. A new transplant line was employed in a second determination with lung lesions developing earlier. Table 6 records the results of this experiment; here ascorbic acid was employed as the control drug.

Morris hepatoma (5123D) = assay: Growth/induction of transplanted Morris hepatoma (5123D) in ICFA-treated rats; assay type: in vivo; settings: 10-100 mg. once or twice a day orally
Procedure: Another laboratory test involving angiogenesis or neovascularization is based on the time period required for a differentiated tumor to become undifferentiated (vascularized). An inflammatory response enhances tumor growth and reduces the lag phase. In this test, rats are injected with a test drug (30 minutes prior to dosing) with ICFA (incomplete Freund's adjuvant) plus India ink intradermally in a shaved area on a rat's back, thus providing a marked injection site. After 3 days of twice daily administration of the test drug followed 30 minutes later by administration of ICFA, the tumor is transplanted on the periphery of the marked injection site. The animals are weighed and the tumor size determined (length+width/2) at weekly intervals for 4 weeks. Morris hepatoma (5123D) was used as the […] tumor.
0.5 cc. of ICFA were also given once or twice daily subcutaneously to each test rat.

scorbutic guinea pigs = settings: added to the diet of scorbutic guinea pigs; Gould et al. 1949; cited from earlier work
[3] = system: proline hydroxylation in scorbutic granulomas; settings: in vitro; Rokosova and Chvapil 1974; cited from earlier work
[4] = 24 h, Table 1, read-out: average % inhibition (serpentine vessels)
[5] = oral 50 mg./kg., one experiment
[6] = Table 6, 16 day, new transplant line, 100 mg./kg., Emulphor control 69.8 ± 10.4

- titratable group (pKa by titration): No titratable groups
SMILES: CC1(C)OC[C@@H]([C@H]2OC(=O)C(OCc3ccc(C#N)cc3)=C2OCc2ccc(C#N)cc2)O1 [2,3-bis(O-4-cyanobenzyl)-5,6-O-(1-methylethylidene)-L-ascorbic acid]
- inhibition in vivo at 25 mg/kg (angiogenesis factor; 24 h, Table 2, read-out: % inhibition (serpentine vessels)): 36 to 91%
- decrease in paw swelling caused by collagen Type II injection [1]: substantial decreases in paw swelling

SMILES: CCCCCCCCCCCCCCCCCCOC1=C(OCCCCCCCCCCCCCCCCCC)[C@@H]([C@@H](O)CO)OC1=O [2,3-di-(-O-n-octadecyl)-L-ascorbic acid]
- inhibition in vivo at 25 mg/kg (angiogenesis factor; [4]): 52%
- decrease of paw volumes ([1]; 12.5 and 25 mg./kg.): 33-67%

SMILES: COC1=C(OC)C(C(O)CO)OC1=O (stereo not shown) [2,3-dimethylascorbic acid]
- Vitamin C activity (Vitamin C activity): devoid of Vitamin C activity

SMILES: O=C1O[C@H]([C@@H](O)CO)C(OCc2cccc(C(F)(F)F)c2)=C1O [3-O-(3-trifluoromethylbenzyl)-L-ascorbic acid]
- paw volumes vs ICFA controls ([1]; 25 mg./kg.): substantially the same as ICFA controls

- pKa (pKa by titration): 10.4
SMILES: CC1(C)OC[C@@H]([C@H]2OC(=O)C(O)=C2OCCCCC#N)O1 [3-O-(4-cyanobutyl)-5,6-O-(1-methylethylidene)-L-ascorbic acid]
- decrease in paw swelling caused by collagen Type II injection [1]: substantial decreases in paw swelling

- pKa (pKa by titration): 10.1
SMILES: CC1(C)OC[C@@H]([C@H]2OC(=O)C(O)=C2OCc2ccc([N+](=O)[O-])cc2)O1 [3-O-(4-nitrobenzyl)-5,6-O-(1-methylethylidene)-L-ascorbic acid]
- inhibition in vivo at 150 mg/kg (angiogenesis factor; 24 h, Table 2): 42 to 85%

- pKa (pKa by titration): 10.8
SMILES: CC1(C)OC[C@@H]([C@H]2OC(=O)C(O)=C2OCCCCCCCCCCCO)O1 [3-O-(11-hydroxyundecyl)-5,6-O-(1-methylethylidene)-L-ascorbic acid]
- inhibition in vivo at 150 mg/kg (angiogenesis factor; 24 h, Table 2): 67%

SMILES: CCCCCCCCCCCCCCCCCOC1=C(O)C(=O)O[C@@H]1[C@@H](O)CO [3-O-n-heptadecyl-L-ascorbic acid]
- decrease in paw swelling caused by collagen Type II injection [1]: substantial decreases in paw swelling

- pKa (pKa by titration): 11.1
SMILES: CCCCCCCCCCCCCCCCOC1=C(O)C(=O)O[C@@H]1[C@@H](O)CO [3-O-n-hexadecyl)-L-ascorbic acid]
- inhibition in vivo at 25 mg/kg (angiogenesis factor; [4]): 31%

- pKa (pKa by titration): 11.4
SMILES: CCCCCCCCCCCCCCCCCCOC1=C(O)C(=O)O[C@@H]1[C@@H]1COC(C)(C)O1 [3-O-n-octadecyl-5,6-O-(1-methylethylidene)-L-ascorbic acid]
- inhibition in vivo at 30 mg/kg (angiogenesis factor; Table 4, intraperitoneal dose 30 mg./kg., individual results): 58%
- inhibition in vivo at 120 mg/kg (angiogenesis factor; Table 4, intraperitoneal dose 120 mg./kg., individual results): 66%
- inhibition in vivo at 240 mg/kg (angiogenesis factor; Table 4, intraperitoneal dose 240 mg./kg., individual results): 71%
- paw volumes vs negative control levels ([1]; 50 mg./kg., other runs): indistinguishable from negative control levels
- inhibition of the swelling of the paw [1, 5]: about 50%

SMILES: CCCCCCCCCCCCCCCCCCOC1=C(O)C(=O)O[C@@H]1[C@@H](O)CO [3-O-n-octadecyl-L-ascorbic acid]
- Mean No. of Lesions ± S.E./Lung ([2]; Table 5, Day 30, 35 mg./kg. i.p., Emulphor control 15.8 ± 4.6): 1.8 ± 1.2 Lesions/Lung
- Mean No. of Lesions ± S.E./Lung ([2]; Table 5, Day 42, 35 mg./kg. i.p., Emulphor control 20.6 ± 1.8): 18.6 ± 1.3 Lesions/Lung
- Mean No. of Lesions ± S.E./Lung ([2]; Table 6, 16 day, new transplant line, 30 mg./kg., Emulphor control 69.8 ± 10.4): 10.7 ± 3.4 Lesions/Lung
- Mean No. of Lesions ± S.E./Lung [2, 6]: 13.0 ± 5.1 Lesions/Lung
- growth of the undifferentiated tumor (Morris hepatoma (5123D); alternative outcome to delayed induction): inhibited the growth of the undifferentiated tumor
- delay of tumor induction (Morris hepatoma (5123D); alternative outcome to growth inhibition): 4 to 7 days
- decrease of paw volumes ([1]; 12.5 mg./kg.): about 25%
- paw volumes vs controls ([1]; 17.5 mg./kg.): indistinguishable from controls
- decrease of paw volume vs positive controls (collagen, no drug) ([1]; 50 mg./kg., other runs): 90-100%
- paw volumes vs ICFA-treated rats (negative controls) [1, 5]: not substantially different from those of the ICFA-treated rats

SMILES: COC1=C(O)C(=O)O[C@@H]1[C@@H](O)CO [3-methylascorbic acid]
- vitamin C activity relative to ascorbic acid (scorbutic guinea pigs): about 1/50
- Vitamin C activity (Vitamin C activity): active
- stimulation of proline hydroxylation [3]: had an effect in vitro

- pKa (pKa by titration): 6.1
SMILES: CC1(C)OC[C@@H]([C@H]2OC(=O)C(O)=C2O)O1 [5,6-O-(1-methylethylidene)-L-ascorbic acid]
- inhibition in vivo at 10 mg/kg (angiogenesis factor; 24 h, Table 2, dose 10 mg./kg.): 48%

SMILES: CCCCCCCCCCC1(C)OC[C@@H]([C@H]2OC(=O)C(O)=C2O)O1 (stereo partly drawn) [5,6-O-(1-n-decylethylidene)-L-ascorbic acid]
- decrease in paw swelling caused by collagen Type II injection [1]: substantial decreases in paw swelling

SMILES: O=P1(N(CCCl)CCCl)NCCCO1 (stereo not shown) [Cytoxan, reference compound]
- Mean No. of Lesions ± S.E./Lung ([2]; Table 5, Day 30, 30 mg./kg. i.p. every 4th day starting on day 12, Emulphor control 15.8 ± 4.6): 8.4 ± 1.5 Lesions/Lung

SMILES: O=C1O[C@H]([C@@H](O)CO)C(O)=C1O [ascorbic acid]
- Mean No. of Lesions ± S.E./Lung [2, 6]: 33.8 ± 9.6 Lesions/Lung
